From patent US11400062B2, “Compositions comprising enzyme-cleavable amphetamine prodrugs and inhibitors thereof” (Signature Therapeutics, Inc., priority 2010, dated 2022)

Legend:
[1] = In vivo tolerability in rats (intravenous); design: species or system rat; conditions: for dose tolerated by rats: IV
Description: (§1) Male naïve Sprague-Dawley rats, 4 per dose, were used in the study. Rats were weighed, and then placed under a heat lamp for 15-20 minutes to dilate the lateral tail veins. […] Before dosing, rats were placed in Broome restrainers and the drug was introduced into one of the tail veins using a syringe and needle. […] Blood samples were collected 5 minutes post-dose via the saphenous vein. The rats were observed up to 24 hours.
as §1
The protocol to assess the IV tolerability of Compound AM-3 (lisdexamphetamine) was as described in Examples 9 and 13 above.

[2] = Pharmacokinetics of prodrug following PO administration to rats; conditions: for Cmax / Tmax: male, Sprague Dawley, rat, plasma, po
[3] = Pharmacokinetics of prodrug following IV administration to rats; conditions: for Cmax: male, Sprague Dawley, rat, plasma, iv
trypsin = molecular target: T1, trypsin (Bos taurus, UniProt P00760); experiment: In vitro trypsin conversion of prodrugs to amphetamine and inhibition by trypsin inhibitor; conditions: bovine, trypsin from bovine pancreas; for half-life at 0.761 mM: pH 8; for half-life: pH 8, with Compound 109 (trypsin inhibitor), 2 uM
T1 sequence (P00760 24-246): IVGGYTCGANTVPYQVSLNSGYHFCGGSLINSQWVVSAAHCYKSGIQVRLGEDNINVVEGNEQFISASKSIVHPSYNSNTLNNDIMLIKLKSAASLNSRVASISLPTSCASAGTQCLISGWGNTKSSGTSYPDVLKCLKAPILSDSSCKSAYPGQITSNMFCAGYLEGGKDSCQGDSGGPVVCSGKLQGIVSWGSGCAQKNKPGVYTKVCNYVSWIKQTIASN

[4] = molecular target: T2, trypsin from bovine pancreas (Bos taurus, UniProt P00760); experiment: as above; conditions: no trypsin inhibitor; 0.761 mM prodrug HCl, 0.0228 mg/ml trypsin, pH 8, 37° C.
T2 sequence (P00760 24-246): T1 sequence (P00760 24-246)

[5] = rat plasma, AM-4 PO 24 mg/kg (63 μmol/kg)

With `CC(=O)N[C@@H](CCCNC(=N)N)C(=O)N[C@@H](C)Cc1ccccc1` (stereo in doubt) [Compound AM-1, 2-acetylamino-5-guanidino-pentanoic acid ((R)-1-methyl-2-phenyl-ethyl)-amide] the “time to recover to normal activity” value ([1]; AM-1 IV 87 μmol/kg) was no more than 2 min, the “dose tolerated by rats” value [1] was 87 µmol/kg and the Cmax ([2]; 24 mg/kg) was 1.28 ± 0.81 ng/mL. It also gave a Tmax ([2]; 24 mg/kg) of 37.5 ± 25.8 min, a Cmax ([3]; 5 mg/kg) of 3250 ± 310 ng/mL and a half-life at 0.761 mM (trypsin) of 1.66 ± 0.0208 days. For the same compound, the half-life (trypsin) was 2.25 ± 0.192 days and the “Rate of AMP formation, Ave ± sd” value [4] was 0.0455 ± 0.0102 umols/h/UBAEE.

With `C[C@@H](Cc1ccccc1)NC(=O)[C@H](CCCNC(=N)N)NC(=O)CC(=O)O` [Compound AM-2, N-[4-guanidino-1-((R)-1-methyl-2-phenyl-ethylcarbamoyl)-butyl]-malonic acid] the “time to recover to normal activity” value ([1]; AM-2 IV 155 μmol/kg) was no more than 30 min, the “dose tolerated by rats” value [1] was 155 µmol/kg and the Cmax ([2]; 27 mg/kg) was 811 ± 850 ng/mL. The Tmax ([2]; 27 mg/kg) was 37.5 ± 15 min, the Cmax ([3]; 6 mg/kg) was 2600 ± 260 ng/mL and the half-life at 0.761 mM (trypsin) was 2.5 ± 0.713 days. For the same compound, the half-life (trypsin) was 2.85 ± 0.683 days and the “Rate of AMP formation, Ave ± sd” value [4] was 0.0310 ± 0.0004 umols/h/UBAEE.

In the case of `C[C@@H](Cc1ccccc1)NC(=O)[C@@H](N)CCCCN` [Compound AM-3, lisdexamphetamine, reference compound], the “time to recover to normal activity” value ([1]; AM-3 IV 48 μmol/kg) is reported as no more than 120 min, the “death of the rats” value ([1]; AM-3 IV 95 μmol/kg) is reported as 50% and the time to death ([1]; AM-3 IV 95 μmol/kg and 190 μmol/kg) is reported as “less than 1 min”. The “death of the rats” value ([1]; AM-3 IV 190 μmol/kg) was 100%, the Clinical observations ([1]; AM-3 IV 64 mg/kg (190 μmol/kg), 1 rat) was “Died 10 sec post dose” and the “dose tolerated by rats” value [1] was 48 µmol/kg. For the same compound, the Cmax ([2]; 22 mg/kg) was 357 ng/mL, the Tmax ([2]; 22 mg/kg) was 37.5 ± 15 min and the Cmax ([3]; 4.5 mg/kg) was 1670 ± 580 ng/mL. The half-life at 0.761 mM (trypsin) was 4.67 ± 0.583 days, the half-life (trypsin) was 16.4 ± 18 days and the “Rate of AMP formation, Ave ± sd” value [4] was “not detectable”.

For `CC(=O)N[C@@H](CCCCN)C(=O)N[C@@H](C)Cc1ccccc1` [Compound AM-5, Amphetamine-lysine-acetate], the Cmax ([3]; 4.5 mg/kg) was 2150 ± 1700 ng/mL.

For “Amphetamine-arginine-N-methyl [Compound AM-4]”, the “AMP Cmax ± sd” value [2, 5] was 1.92 ± 0.20 ng/mL, the “AMP Tmax ± sd” value [2, 5] was 1.00 ± 0.0 h and the “AMP Cmax ± sd” value ([3]; rat plasma, AM-4 IV 4.5 mg/kg (12 μmol/kg)) was 17.9 ± 3.5 ng/mL.
